Source: patent US9340535B2, “N-[5-(Aminosulfony1)-4-methyl-1,3-thiazol-2-yl]-N-methyl-2-[4-(2-pyridinyl)phenyl]acetamide mesylate monohydrate” (AiCuris GmbH & Co. KG, priority 2011, dated 2016)
Like-named read-outs stand apart in the source and are kept apart here.

Experiments:
[1] = Long term stability; format: physicochemical; conditions: in comparison to the free base form
[2] = Crystallinity by X-ray diffraction, microscopy; format: physicochemical; conditions: X-ray diffraction, microscopy
[3] = Water solubility, solubility screening; conditions: water
[4] = Stability to dissociation: stirring for one week at room temperature
[5] = Exposure in 26-week repeated dose toxicity study (mesylate monohydrate); format: in vivo; conditions: rats; for Cmax / AUC(0-t): rat, in vivo; for AUC(0-t): read-out: AUC(0-24); for Exposure ratio 26-wts/13-wts. AUC(0-24) / Exposure ratio 26-wts/13-wts. Cmax: day 1, mesylate monohydrate vs free base; for Exposure ratio 26-wts/13-wts AUC(0-24) / Exposure ratio 26-wts/13-wts Cmax: week 13, mesylate monohydrate vs free base
Description: The exposure of rats to N-[5-(aminosulfonyl)-4-methyl-1,3-thiazol-2-yl]-N-methyl-2-[4-(2-pyridinyl)phenyl]acetamide in a repeated dose 13-week toxicity study performed with the free base N-[5-(aminosulfonyl)-4-methyl-1,3-thiazol-2-yl]-N-methyl-2-[4-(2-pyridinyl)phenyl]acetamide (free base) was compared to the exposures observed in a 26-week repeated dose toxicity study performed with the mesylate monohydrate. In both studies, the test items were administered as 0.5% (w/v) tylose suspensions, and the concentrations were adjusted to the equivalents of free base N-[5-(aminosulfonyl)-4-methyl-1,3-thiazol-2-yl]-N-methyl-2-[4-(2-pyridinyl)phenyl]acetamide.

[6] = Thermal analysis and polymorphic stability (DSC, TGA); format: physicochemical
Description: Polymorphism refers to the ability of a solid material to exist in more than one crystal structure or solid form.
Upon mild heating (about 50° C. to 60° C.), the water content is reduced which would make these salts and the free base form extremely difficult to handle and to process during production and formulation. In contrast the hydrate of the mono mesylate salt is thermally stable and polymorphic stable at much higher temperatures of considerably above 100° C. as judged by TGA.
Moreover, exactly one mol equivalent water is incorporated into the crystal structure wherein the hydrogen atoms of the water molecule form hydrogen bridges with oxygen atoms of two different mesylate molecules. This well-defined position in the crystal lattice (see FIG. 3) is verified by the fact that water is released from the crystal only at high temperature, starting at 160° C.

[7] = system: herpes simplex viruses; experiment: Activity against herpes viruses; conditions: mainly herpes simplex viruses
[8] = Pharmacokinetics, single and multiple dose applications in healthy volunteers; format: in vivo, humans
Description: The plasma concentrations in humans exceeded those reached in in vivo and in vitro experiments sufficient to effectively treat herpes simplex virus infections in various animal models and to prevent viral replication in cell culture.

[9] = Stability to decomposition: storage at 90° C. for one week
[10] = female, 10 mg/kg/day, F, 10 mg/kg/day, day 1, 26-week toxicity study
[11] = female, 50 mg/kg/day, F, 50 mg/kg/day, day 1, 26-week toxicity study
[12] = female, 250 mg/kg/day, F, 250 mg/kg/day, day 1, 26-week toxicity study
[13] = male, 10 mg/kg/day, M, 10 mg/kg/day, day 1, 26-week toxicity study
[14] = male, 50 mg/kg/day, M, 50 mg/kg/day, day 1, 26-week toxicity study
[15] = male, 250 mg/kg/day, M, 250 mg/kg/day, day 1, 26-week toxicity study
[16] = mesylate monohydrate vs free base, 50 and 250 mg/kg/day

In the case of `CS(=O)(=O)O.Cc1nc(N(C)C(=O)Cc2ccc(-c3ccccn3)cc2)sc1S(N)(=O)=O.O` [Mesylate monohydrate, N-[5-(aminosulfonyl)-4-methyl-1,3-thiazol-2-yl]-N-methyl-2-[4-(2-pyridinyl)-phenyl]acetamide methanesulfonate monohydrate], the Long term stability [1] is reported as “superior”, the Crystallinity [2] is reported as “+” and the solubility [3] is reported as 1380 µg/mL. For the same compound, the Stability to dissociation [4] was “++”, the Cmax [5, 10] was 17.2 µg/mL and the AUC(0-t) [5, 10] was 175 µg·h/mL. For the same compound, the AUC(0-t) ([5]; female, 10 mg/kg/day, F, 10 mg/kg/day, week 13, 26-week toxicity study) was 321 µg·h/mL, the Cmax ([5]; female, 10 mg/kg/day, F, week 13, 26-week toxicity study) was 26 µg/mL and the Cmax [5, 11] was 77.8 µg/mL. For the same compound, the AUC(0-t) [5, 11] was 913 µg·h/mL, the AUC(0-t) ([5]; female, 50 mg/kg/day, F, 50 mg/kg/day, week 13, 26-week toxicity study) was 1210 µg·h/mL and the Cmax ([5]; female, 50 mg/kg/day, F, week 13, 26-week toxicity study) was 106 µg/mL. It also gave a Cmax [5, 12] of 146 µg/mL, an AUC(0-t) [5, 12] of 2470 µg·h/mL and an AUC(0-t) ([5]; female, 250 mg/kg/day, F, 250 mg/kg/day, week 13, 26-week toxicity study) of 3580 µg·h/mL. The Cmax ([5]; female, 250 mg/kg/day, F, week 13, 26-week toxicity study) was 217 µg/mL, the Cmax [5, 13] was 16.9 µg/mL and the AUC(0-t) [5, 13] was 119 µg·h/mL. The AUC(0-t) ([5]; male, 10 mg/kg/day, M, 10 mg/kg/day, week 13, 26-week toxicity study) was 227 µg·h/mL, the Cmax ([5]; male, 10 mg/kg/day, M, week 13, 26-week toxicity study) was 21.8 µg/mL and the Cmax [5, 14] was 70.3 µg/mL. For the same compound, the AUC(0-t) [5, 14] was 634 µg·h/mL, the AUC(0-t) ([5]; male, 50 mg/kg/day, M, 50 mg/kg/day, week 13, 26-week toxicity study) was 959 µg·h/mL and the Cmax ([5]; male, 50 mg/kg/day, M, week 13, 26-week toxicity study) was 74.7 µg/mL. The Cmax [5, 15] was 134 µg/mL, the AUC(0-t) [5, 15] was 1980 µg·h/mL and the AUC(0-t) ([5]; male, 250 mg/kg/day, M, 250 mg/kg/day, week 13, 26-week toxicity study) was 2780 µg·h/mL. The Cmax ([5]; male, 250 mg/kg/day, M, week 13, 26-week toxicity study) was 169 µg/mL, the “Exposure ratio 26-wts/13-wts. AUC(0-24)” value ([5]; F, 10 mg/kg/day) was 1.1 and the “Exposure ratio 26-wts/13-wts. Cmax” value ([5]; F, 10 mg/kg/day) was 1.1. The “Exposure ratio 26-wts/13-wts AUC(0-24)” value ([5]; F, 10 mg/kg/day) was 1.5, the “Exposure ratio 26-wts/13-wts Cmax” value ([5]; F, 10 mg/kg/day) was 1.0 and the “Exposure ratio 26-wts/13-wts. AUC(0-24)” value ([5]; F, 50 mg/kg/day) was 2.2. The “Exposure ratio 26-wts/13-wts. Cmax” value ([5]; F, 50 mg/kg/day) was 2.2, the “Exposure ratio 26-wts/13-wts AUC(0-24)” value ([5]; F, 50 mg/kg/day) was 2.6 and the “Exposure ratio 26-wts/13-wts Cmax” value ([5]; F, 50 mg/kg/day) was 2.6. For the same compound, the “Exposure ratio 26-wts/13-wts. AUC(0-24)” value ([5]; F, 250 mg/kg/day) was 2.6, the “Exposure ratio 26-wts/13-wts. Cmax” value ([5]; F, 250 mg/kg/day) was 2.1 and the “Exposure ratio 26-wts/13-wts AUC(0-24)” value ([5]; F, 250 mg/kg/day) was 3.1. For the same compound, the “Exposure ratio 26-wts/13-wts Cmax” value ([5]; F, 250 mg/kg/day) was 2.6, the “Exposure ratio 26-wts/13-wts. AUC(0-24)” value ([5]; M, 10 mg/kg/day) was 1.4 and the “Exposure ratio 26-wts/13-wts. Cmax” value ([5]; M, 10 mg/kg/day) was 1.3. For the same compound, the “Exposure ratio 26-wts/13-wts AUC(0-24)” value ([5]; M, 10 mg/kg/day) was 1.7, the “Exposure ratio 26-wts/13-wts Cmax” value ([5]; M, 10 mg/kg/day) was 1.5 and the “Exposure ratio 26-wts/13-wts. AUC(0-24)” value ([5]; M, 50 mg/kg/day) was 2.6. The “Exposure ratio 26-wts/13-wts. Cmax” value ([5]; M, 50 mg/kg/day) was 2.3, the “Exposure ratio 26-wts/13-wts AUC(0-24)” value ([5]; M, 50 mg/kg/day) was 2.9 and the “Exposure ratio 26-wts/13-wts Cmax” value ([5]; M, 50 mg/kg/day) was 2.5. For the same compound, the “Exposure ratio 26-wts/13-wts. AUC(0-24)” value ([5]; M, 250 mg/kg/day) was 3.5, the “Exposure ratio 26-wts/13-wts. Cmax” value ([5]; M, 250 mg/kg/day) was 2.5 and the “Exposure ratio 26-wts/13-wts AUC(0-24)” value ([5]; M, 250 mg/kg/day) was 4.2. The “Exposure ratio 26-wts/13-wts Cmax” value ([5]; M, 250 mg/kg/day) was 2.7, the “Increase in extent of exposure, AUC” value [5, 16] was no more than 4 fold and the “Increase in extent of exposure, Cmax” value [5, 16] was “up to 2.7 fold”. The “Thermal stability of hydrate” value [6] was “stable”, the DSC ([6]; Differential Scanning Calorimetry) was “loss of water before melting” and the TGA ([6]; Thermogravimetric Analysis) was 4.3%. For the same compound, the “Temperature at which the hydrate is thermally and polymorphic stable” value ([6]; as judged by TGA) was “above 100 °C”, the “Temperature at which water is released from the crystal” value ([6]; starting temperature) was no less than 160 °C and the “Activity against herpes viruses” value [7] was “highly active”. The Plasma half lives [8] was “long lasting half lives” and the Stability to decomposition [9] was “++”.
